Results from patent publication US8840866B2, “Styrylpyridine derivatives and their use for binding and imaging amyloid plaques” (The Trustees of the University of Pennsylvania, priority 2006, dated 2014).

Test: Organ distribution in normal ICR mice after iv injection of radiolabeled tracer
Assay type: in vivo
Details: [125I]-labeled tracer
Description: The mice (n=3 for each time point) were sacrificed by cervical dislocation at designated time-points post injection. The organs of interest were removed and weighed, and the radioactivity was counted with an automatic gamma counter. The percentage dose per organ was calculated by a comparison of the tissue counts to suitably diluted aliquots of the injected material. The total activity of the blood was calculated under the assumption that it is 7% of the total body weight. The % dose/g of samples was calculated by comparing the sample counts with the count of the diluted initial dose.

SMILES	Biodistribution: Blood (2 min) [% dose/g]	Biodistribution: Brain (2 min) [% dose/g]	Biodistribution: Heart (2 min) [% dose/g]	Biodistribution: Kidney (2 min) [% dose/g]	Biodistribution: Liver (2 min) [% dose/g]	Biodistribution: Lung (2 min) [% dose/g]	Biodistribution: Muscle (2 min) [% dose/g]	Biodistribution: Skin (2 min) [% dose/g]	Biodistribution: Spleen (2 min) [% dose/g]	Biodistribution: Thyroid (2 min) [% dose/g]	Biodistribution: Blood (30 min) [% dose/g]	Biodistribution: Brain (30 min) [% dose/g]	Biodistribution: Heart (30 min) [% dose/g]	Biodistribution: Kidney (30 min) [% dose/g]	Biodistribution: Liver (30 min) [% dose/g]	Biodistribution: Lung (30 min) [% dose/g]	Biodistribution: Muscle (30 min) [% dose/g]	Biodistribution: Skin (30 min) [% dose/g]	Biodistribution: Spleen (30 min) [% dose/g]	Biodistribution: Thyroid (30 min) [% dose/g]	further results
CN(C)c1ccc(/C=C/c2cnc(OCCOCCOCCF)c(I)c2)cc1 [[^125I]13a, (E)-(5-Iodo-6-{2-[2-(2-fluoroethoxy)ethoxy]ethoxy}pyridin-3-yl)-2-(4-dimethylaminophenyl)-ethylene]	2.70 ± 0.58	4.03 ± 0.43	12.76 ± 1.24	16.62 ± 1.96	22.15 ± 4.34	10.08 ± 2.15	0.90 ± 0.20	0.54 ± 0.05	4.47 ± 1.28	3.89 ± 0.67	2.05 ± 0.18	1.93 ± 0.18	1.63 ± 0.03	3.32 ± 0.11	9.54 ± 1.30	2.50 ± 0.14	1.00 ± 0.08	1.47 ± 0.26	1.42 ± 0.05	16.23 ± 11.75	Biodistribution: Blood (1 hr): 1.65 ± 0.45 % dose/g; Biodistribution: Brain (1 hr): 0.68 ± 0.17 % dose/g; Biodistribution: Heart (1 hr): 0.97 ± 0.16 % dose/g; Biodistribution: Kidney (1 hr): 2.30 ± 0.54 % dose/g; Biodistribution: Liver (1 hr): 5.34 ± 2.22 % dose/g; Biodistribution: Lung (1 hr): 1.62 ± 0.46 % dose/g; Biodistribution: Muscle (1 hr): 0.59 ± 0.13 % dose/g; Biodistribution: Skin (1 hr): 1.59 ± 0.68 % dose/g; Biodistribution: Spleen (1 hr): 0.99 ± 0.47 % dose/g; Biodistribution: Thyroid (1 hr): 24.19 ± 8.26 % dose/g; Biodistribution: Blood (2 hr): 1.45 ± 0.41 % dose/g; Biodistribution: Brain (2 hr): 0.26 ± 0.04 % dose/g; Biodistribution: Heart (2 hr): 0.73 ± 0.17 % dose/g; Biodistribution: Kidney (2 hr): 1.71 ± 0.24 % dose/g; Biodistribution: Liver (2 hr): 5.62 ± 1.31 % dose/g; Biodistribution: Lung (2 hr): 1.33 ± 0.39 % dose/g; Biodistribution: Muscle (2 hr): 0.53 ± 0.08 % dose/g; Biodistribution: Skin (2 hr): 1.23 ± 0.41 % dose/g; Biodistribution: Spleen (2 hr): 0.79 ± 0.27 % dose/g; Biodistribution: Thyroid (2 hr): 60.76 ± 6.09 % dose/g
CNc1ccc(/C=C/c2cnc(OCCOCCOCCF)c(I)c2)cc1 [[^125I]13b, (E)-(5-Iodo-6-{2-[2-(2-fluoroethoxy)ethoxy]ethoxy}pyridin-3-yl)-2-(4-methylaminophenyl)-ethylene]	4.37 ± 1.07	6.22 ± 1.01	9.85 ± 1.78	9.03 ± 6.81	26.24 ± 4.47	6.85 ± 0.27	1.04 ± 0.25	1.48 ± 0.07	4.41 ± 1.05	5.74 ± 0.42	3.83 ± 1.11	1.23 ± 0.13	2.54 ± 0.37	3.40 ± 0.76	11.47 ± 2.10	3.01 ± 0.96	1.11 ± 0.34	2.95 ± 0.81	2.49 ± 0.75	24.09 ± 27.44	Biodistribution: Blood (1 hr): 2.88 ± 0.28 % dose/g; Biodistribution: Brain (1 hr): 0.62 ± 0.17 % dose/g; Biodistribution: Heart (1 hr): 1.75 ± 0.26 % dose/g; Biodistribution: Kidney (1 hr): 2.81 ± 0.70 % dose/g; Biodistribution: Liver (1 hr): 7.70 ± 1.22 % dose/g; Biodistribution: Lung (1 hr): 2.37 ± 0.29 % dose/g; Biodistribution: Muscle (1 hr): 0.85 ± 0.06 % dose/g; Biodistribution: Skin (1 hr): 2.46 ± 0.16 % dose/g; Biodistribution: Spleen (1 hr): 1.75 ± 0.33 % dose/g; Biodistribution: Thyroid (1 hr): 38.09 ± 6.37 % dose/g; Biodistribution: Blood (2 hr): 2.21 ± 0.73 % dose/g; Biodistribution: Brain (2 hr): 0.26 ± 0.01 % dose/g; Biodistribution: Heart (2 hr): 1.22 ± 0.28 % dose/g; Biodistribution: Kidney (2 hr): 1.86 ± 0.36 % dose/g; Biodistribution: Liver (2 hr): 6.25 ± 1.79 % dose/g; Biodistribution: Lung (2 hr): 1.85 ± 0.74 % dose/g; Biodistribution: Muscle (2 hr): 0.44 ± 0.19 % dose/g; Biodistribution: Skin (2 hr): 1.32 ± 0.41 % dose/g; Biodistribution: Spleen (2 hr): 1.27 ± 0.24 % dose/g; Biodistribution: Thyroid (2 hr): 215.05 ± 74.59 % dose/g
CN(C)c1ccc(/C=C/c2cnc(OCCO)c(I)c2)cc1 [[^125I]16a, (E)-[5-Iodo-6-(2-hydroxyethoxy)pyridin-3-yl]-2-(4-dimethylaminophenyl)-ethylene]	2.71 ± 0.07	5.43 ± 0.85	10.24 ± 0.45	14.25 ± 1.98	19.12 ± 2.68	9.41 ± 0.56	0.71 ± 0.46	0.46 ± 0.13	4.40 ± 1.89	4.15 ± 0.43	2.24 ± 0.38	3.56 ± 0.32	1.93 ± 0.27	4.19 ± 0.45	12.38 ± 1.29	3.02 ± 0.38	1.05 ± 0.20	1.18 ± 0.26	1.94 ± 0.19	11.21 ± 7.88	Biodistribution: Blood (1 hr): 2.18 ± 0.66 % dose/g; Biodistribution: Brain (1 hr): 1.32 ± 0.00 % dose/g; Biodistribution: Heart (1 hr): 1.12 ± 0.02 % dose/g; Biodistribution: Kidney (1 hr): 2.49 ± 0.33 % dose/g; Biodistribution: Liver (1 hr): 6.22 ± 0.96 % dose/g; Biodistribution: Lung (1 hr): 1.98 ± 0.21 % dose/g; Biodistribution: Muscle (1 hr): 0.55 ± 0.03 % dose/g; Biodistribution: Skin (1 hr): 1.16 ± 0.00 % dose/g; Biodistribution: Spleen (1 hr): 1.32 ± 0.10 % dose/g; Biodistribution: Thyroid (1 hr): 59.13 ± 6.26 % dose/g; Biodistribution: Blood (2 hr): 1.01 ± 0.02 % dose/g; Biodistribution: Brain (2 hr): 0.46 ± 0.05 % dose/g; Biodistribution: Heart (2 hr): 0.62 ± 0.12 % dose/g; Biodistribution: Kidney (2 hr): 1.48 ± 0.20 % dose/g; Biodistribution: Liver (2 hr): 4.87 ± 0.46 % dose/g; Biodistribution: Lung (2 hr): 1.00 ± 0.15 % dose/g; Biodistribution: Muscle (2 hr): 0.22 ± 0.04 % dose/g; Biodistribution: Skin (2 hr): 0.40 ± 0.05 % dose/g; Biodistribution: Spleen (2 hr): 0.80 ± 0.11 % dose/g; Biodistribution: Thyroid (2 hr): 24.81 ± 0.62 % dose/g
CNc1ccc(/C=C/c2cnc(OCCO)c(I)c2)cc1 [[^125I]16b, (E)-[5-Iodo-6-(2-hydroxyethoxy)pyridin-3-yl]-2-(4-methylaminophenyl)-ethylene]	4.14 ± 0.41	8.04 ± 0.82	7.16 ± 1.16	11.51 ± 1.48	20.84 ± 2.38	7.43 ± 1.21	1.15 ± 0.38	0.95 ± 0.09	4.08 ± 0.68	6.31 ± 1.59	3.08 ± 0.35	0.88 ± 0.30	1.50 ± 0.18	3.73 ± 0.75	12.57 ± 3.03	2.67 ± 0.46	0.91 ± 0.06	1.86 ± 0.50	1.34 ± 0.29	17.23 ± 14.23	Biodistribution: Blood (1 hr): 1.81 ± 0.56 % dose/g; Biodistribution: Brain (1 hr): 0.26 ± 0.03 % dose/g; Biodistribution: Heart (1 hr): 0.88 ± 0.30 % dose/g; Biodistribution: Kidney (1 hr): 2.16 ± 0.08 % dose/g; Biodistribution: Liver (1 hr): 5.62 ± 0.68 % dose/g; Biodistribution: Lung (1 hr): 1.76 ± 0.32 % dose/g; Biodistribution: Muscle (1 hr): 0.42 ± 0.08 % dose/g; Biodistribution: Skin (1 hr): 1.29 ± 0.51 % dose/g; Biodistribution: Spleen (1 hr): 0.87 ± 0.37 % dose/g; Biodistribution: Thyroid (1 hr): 36.69 ± 37.17 % dose/g; Biodistribution: Blood (2 hr): 1.96 ± 0.14 % dose/g; Biodistribution: Brain (2 hr): 0.15 ± 0.02 % dose/g; Biodistribution: Heart (2 hr): 0.76 ± 0.03 % dose/g; Biodistribution: Kidney (2 hr): 1.53 ± 0.20 % dose/g; Biodistribution: Liver (2 hr): 3.41 ± 0.20 % dose/g; Biodistribution: Lung (2 hr): 1.58 ± 0.10 % dose/g; Biodistribution: Muscle (2 hr): 0.38 ± 0.02 % dose/g; Biodistribution: Skin (2 hr): 1.43 ± 0.10 % dose/g; Biodistribution: Spleen (2 hr): 1.08 ± 0.15 % dose/g; Biodistribution: Thyroid (2 hr): 99.88 ± 69.45 % dose/g
